Assay results reported in patent US20070098636A1, “Method of identifying responders to treatment with insulin sensitizers” (priority 2003, published 2007).

Columns and labels:
[1] = system: db/db mice; experiment: Adiponectin complex distribution in serum of treated db/db mice (velocity sedimentation, quantitative Western blot); format: in vivo, mouse; details: male db/db mice, 10 mg/kg-day by gavage, following 11 days of treatment
Method: (§1) Velocity sedimentation/gel filtration chromatography for separation of adiponectin complexes—5-20% sucrose gradients in 10 mM HEPES pH 8, 125 mM NaCl were poured stepwise (5%, 10%, 15%, 20%) in 2-ml thin-walled ultracentrifuge tubes (Becton Dickinson) and allowed to equilibrate overnight at 4° C. Following layering of the sample on top (diluted 1:10 with 10 mM HEPES pH 8, 125 mM NaCl in the case of serum), the gradients were spun at 55,000 RPM for four hours at 4° C. in a TLS55 rotor in a Beckman TL-100 tabletop ultracentrifuge. 150 μL gradient fractions were sequentially retrieved from the top of the gradient and analyzed by quantitative Western blot analysis.
(§2) Immunoblotting—Separation of proteins by SDS-PAGE, fluorography, and immunoblotting were performed as described previously (20). Primary and secondary antibodies were diluted in TBS with 0.05% Tween-20 and 1% BSA. Horseradish peroxidase conjugated secondary antibodies were detected with enhanced chemiluminescence according to the manufacturer's instructions (Pierce). For quantitative Western blotting, proteins were transferred to BA83 nitrocellulose (Schleicher & Schuell) after SDS-PAGE. […] Blots were analyzed with a Phosphoimager (Molecular Dynamics) and fractions 4-6 and 9-11 from velocity sedimentation (LMW and […] adiponectin, respectively) were quantitated with Imagequant Software. […]

[2] = system: non-diabetic human males; experiment: Human Clinical Study A: plasma adiponectin and adiponectin complexes pre- and post-treatment; format: in vivo; details: 4 mg bid for 14 days
Method: as §1, §2

CN(CCOc1ccc(CC2SC(=O)NC2=O)cc1)c1ccccn1 (stereo not drawn) [rosiglitazone]
percentage of adiponectin found in the high molecular weight (HMW) form [1]: approximately 45 % of total circulating adiponectin | total adiponectin relative to placebo [2]: about 2 fold | HMW/total adiponectin ratio, post-treatment value ([2]; pre-treatment value 20-25%): 45-50%
